From patent US20200017496A1 (priority 2017, published 2020)
Where two headings read alike, the source gives them in different places.

What was measured:
Test in all cases: MIC of compounds alone and combined with antibacterials, broth microdilution (CLSI)
Type in all cases: cell-based
[1] = tested on: Citrobacter freundii (CFR) isolates; conditions: for MIC: Citrobacter freundii, ATB alone, read-out: MIC
In short: (§1)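 Log-phase isolates at final 5·10^5 CFU/mL in cation-adjusted Mueller-Hinton broth, incubated 16-20 h at 35° C in ambient air. MIC read visually as lowest concentration preventing growth, for compound alone and for antibacterial at each compound concentration.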

[2] = tested on: Morganella morganii (MMO) isolates; conditions: for MIC: Morganella morganii, ATB alone, read-out: MIC
In short: as §1

[3] = tested on: Enterobacter aerogenes (EAE) isolates; conditions: for MIC: Klebsiella aerogenes
In short: as §1

[4] = tested on: Klebsiella pneumoniae (KPN) isolates
In short: as §1

With `CC(C)(O/N=C(\C(=O)N[C@@H]1C(=O)N2C(C(=O)[O-])=C(C[n+]3ccccc3)CS[C@H]12)c1csc(N)n1)C(=O)O` [CAZ, Ceftazidime] the “MIC ATB in combination” value ([1]; CFR UFR10, AF1 @ 4 μg/mL) was “<=0.25 μg/mL”, the “MIC ATB in combination” value ([1]; CFR UFR10, AF1 @ 8 μg/mL) was “<=0.25 μg/mL” and the “MIC ATB in combination” value ([1]; CFR UFR11, AF1 @ 4 μg/mL) was 8 µg/mL. For the same compound, the “MIC ATB in combination” value ([1]; CFR UFR11, AF1 @ 8 μg/mL) was 0.5 µg/mL, the “MIC ATB in combination” value ([1]; CFR UFR83, AF1 @ 4 μg/mL) was 32 µg/mL and the “MIC ATB in combination” value ([1]; CFR UFR83, AF1 @ 8 μg/mL) was 8 µg/mL. For the same compound, the “MIC ATB in combination” value ([1]; CFR UFR146, AF1 @ 4 μg/mL) was 4 µg/mL, the “MIC ATB in combination” value ([1]; CFR UFR146, AF1 @ 8 μg/mL) was 2 µg/mL and the “MIC ATB in combination” value ([1]; CFR UFR248, AF1 @ 4 μg/mL) was “<=0.25 μg/mL”. The “MIC ATB in combination” value ([1]; CFR UFR248, AF1 @ 8 μg/mL) was “<=0.25 μg/mL”, the “MIC ATB in combination” value ([1]; CFR UFR249, AF1 @ 4 μg/mL) was “<=0.25 μg/mL” and the “MIC ATB in combination” value ([1]; CFR UFR249, AF1 @ 8 μg/mL) was “<=0.25 μg/mL”. The “MIC ATB in combination” value ([1]; CFR UFR250, AF1 @ 4 μg/mL) was 0.5 µg/mL, the “MIC ATB in combination” value ([1]; CFR UFR250, AF1 @ 8 μg/mL) was “<=0.25 μg/mL” and the MIC ([1]; strain CFR UFR11 (TEM-1, OXA-1, OXA-48)) was 8 µg/mL. The MIC ([1]; strain CFR UFR146 (TEM-1, KPC-2)) was 32 µg/mL, the “MIC ATB in combination” value ([1]; strain CFR UFR253, antibacterial combined with AF1 @ 4 μg/mL) was 4 µg/mL and the “MIC ATB in combination” value ([1]; strain CFR UFR253, antibacterial combined with AF1 @ 8 μg/mL) was 2 µg/mL. The “MIC ATB in combination” value ([1]; strain CFR UFR254, antibacterial combined with AF1 @ 4 μg/mL) was 0.5 µg/mL, the “MIC ATB in combination” value ([1]; strain CFR UFR254, antibacterial combined with AF1 @ 8 μg/mL) was “<=0.25 μg/mL” and the “MIC ATB in combination” value ([2]; MMO 200321, AF1 @ 4 μg/mL) was “<=0.25 μg/mL”. The “MIC ATB in combination” value ([2]; MMO UFR144, AF1 @ 4 μg/mL) was “<=0.25 μg/mL”, the “MIC ATB in combination” value ([2]; MMO UFR144, AF1 @ 8 μg/mL) was “<=0.25 μg/mL” and the “MIC ATB in combination” value ([2]; MMO UFR240, AF1 @ 4 μg/mL) was “<=0.25 μg/mL”. For the same compound, the “MIC ATB in combination” value ([2]; MMO UFR240, AF1 @ 8 μg/mL) was “<=0.25 μg/mL”, the “MIC ATB in combination” value ([2]; MMO UFR241, AF1 @ 4 μg/mL) was “<=0.25 μg/mL” and the “MIC ATB in combination” value ([2]; MMO UFR241, AF1 @ 8 μg/mL) was “<=0.25 μg/mL”. For the same compound, the “MIC ATB in combination” value ([2]; MMO UFR242, AF1 @ 4 μg/mL) was 2 µg/mL, the “MIC ATB in combination” value ([2]; MMO UFR242, AF1 @ 8 μg/mL) was 0.25 µg/mL and the “MIC ATB in combination” value ([2]; MMO UFR243, AF1 @ 4 μg/mL) was “<=0.25 μg/mL”. The “MIC ATB in combination” value ([2]; MMO UFR243, AF1 @ 8 μg/mL) was “<=0.25 μg/mL”, the “MIC ATB in combination” value ([2]; MMO UFR244, AF1 @ 4 μg/mL) was “<=0.25 μg/mL” and the “MIC ATB in combination” value ([2]; MMO UFR244, AF1 @ 8 μg/mL) was “<=0.25 μg/mL”. For the same compound, the “MIC ATB in combination” value ([2]; MMO UFR245, AF1 @ 4 μg/mL) was “<=0.25 μg/mL”, the “MIC ATB in combination” value ([2]; MMO UFR245, AF1 @ 8 μg/mL) was “<=0.25 μg/mL” and the “MIC ATB in combination” value ([2]; MMO UFR246, AF1 @ 4 μg/mL) was “<=0.25 μg/mL”. For the same compound, the “MIC ATB in combination” value ([2]; MMO UFR246, AF1 @ 8 μg/mL) was “<=0.25 μg/mL”, the MIC ([2]; strain MMO 200321 (TEM-1, CTX-M-15, OXA-1)) was 16 µg/mL and the MIC ([2]; strain MMO UFR144 (TEM-1, CTX-M-15)) was 8 µg/mL. The MIC ([2]; strain MMO UFR241 (TEM-1, CTX-M-15)) was 8 µg/mL, the MIC ([2]; strain MMO UFR242 (TEM-52)) was 32 µg/mL and the MIC ([2]; strain MMO UFR243 (DHA-1)) was 1 µg/mL. For the same compound, the MIC ([2]; strain MMO UFR245 (DHA-1)) was 8 µg/mL, the MIC ([2]; strain MMO UFR246 (DHA-1)) was 4 µg/mL and the “MIC ATB in combination” value ([3]; EAE 49469, AF1 @ 4 μg/mL) was 8 µg/mL. For the same compound, the “MIC ATB in combination” value ([3]; EAE 49469, AF1 @ 8 μg/mL) was 2 µg/mL, the “MIC ATB in combination” value ([3]; EAE 200261, AF1 @ 4 μg/mL) was 2 µg/mL and the “MIC ATB in combination” value ([3]; EAE 200261, AF1 @ 8 μg/mL) was 0.5 µg/mL. The “MIC ATB in combination” value ([3]; EAE UFR199, AF1 @ 4 μg/mL) was 1 µg/mL, the “MIC ATB in combination” value ([3]; EAE UFR199, AF1 @ 8 μg/mL) was 0.5 µg/mL and the “MIC ATB in combination” value ([3]; EAE UFR201, AF1 @ 4 μg/mL) was 0.5 µg/mL. For the same compound, the “MIC ATB in combination” value ([3]; EAE UFR201, AF1 @ 8 μg/mL) was “<=0.25 μg/mL”, the “MIC ATB in combination” value ([3]; EAE UFR202, AF1 @ 4 μg/mL) was 2 µg/mL and the “MIC ATB in combination” value ([3]; EAE UFR202, AF1 @ 8 μg/mL) was 1 µg/mL. The “MIC ATB in combination” value ([3]; EAE UFR213, AF1 @ 4 μg/mL) was 0.5 µg/mL, the “MIC ATB in combination” value ([3]; EAE UFR213, AF1 @ 8 μg/mL) was 0.5 µg/mL and the MIC [3] was greater than 256 µg/mL. For the same compound, the MIC ([3]; strain EAE UFR202 (TEM-24), ATB alone, read-out: MIC) was greater than 256 µg/mL, the MIC ([3]; strain EAE UFR213 (TEM-24), ATB alone, read-out: MIC) was greater than 256 µg/mL and the “MIC ATB in combination” value ([4]; KPN 6299, AF1 @ 4 μg/mL) was 0.5 µg/mL. The “MIC ATB in combination” value ([4]; KPN 6299, AF1 @ 8 μg/mL) was “<=0.25 μg/mL”, the “MIC ATB in combination” value ([4]; KPN 110376, AF1 @ 4 μg/mL) was “<=0.25 μg/mL” and the “MIC ATB in combination” value ([4]; KPN 110376, AF1 @ 8 μg/mL) was “<=0.25 μg/mL”. The “MIC ATB in combination” value ([4]; KPN 131119, AF1 @ 4 μg/mL) was 0.5 µg/mL, the “MIC ATB in combination” value ([4]; KPN 131119, AF1 @ 8 μg/mL) was “<=0.25 μg/mL” and the “MIC ATB in combination” value ([4]; KPN 140513, AF1 @ 4 μg/mL) was 16 µg/mL. The “MIC ATB in combination” value ([4]; KPN 140513, AF1 @ 8 μg/mL) was 2 µg/mL, the “MIC ATB in combination” value ([4]; KPN 160143, AF1 @ 4 μg/mL) was 1 µg/mL and the “MIC ATB in combination” value ([4]; KPN 160143, AF1 @ 8 μg/mL) was “<=0.25 μg/mL”. For the same compound, the “MIC ATB in combination” value ([4]; KPN 190128, AF1 @ 4 μg/mL) was 0.5 µg/mL, the “MIC ATB in combination” value ([4]; KPN 190128, AF1 @ 8 μg/mL) was “<=0.25 μg/mL” and the “MIC ATB in combination” value ([4]; KPN 190270, AF1 @ 4 μg/mL) was 0.5 µg/mL. For the same compound, the “MIC ATB in combination” value ([4]; KPN 190270, AF1 @ 8 μg/mL) was “<=0.25 μg/mL”, the “MIC ATB in combination” value ([4]; KPN 190425, AF1 @ 4 μg/mL) was “<=0.25 μg/mL” and the “MIC ATB in combination” value ([4]; KPN 190425, AF1 @ 8 μg/mL) was “<=0.25 μg/mL”. The “MIC ATB in combination” value ([4]; KPN 190551, AF1 @ 4 μg/mL) was “<=0.25 μg/mL”, the “MIC ATB in combination” value ([4]; KPN 190551, AF1 @ 8 μg/mL) was “<=0.25 μg/mL” and the “MIC ATB in combination” value ([4]; KPN 200047, AF1 @ 4 μg/mL) was “<=0.25 μg/mL”. The “MIC ATB in combination” value ([4]; KPN 200047, AF1 @ 8 μg/mL) was “<=0.25 μg/mL”, the “MIC ATB in combination” value ([4]; KPN 200327, AF1 @ 4 μg/mL) was “<=0.25 μg/mL” and the “MIC ATB in combination” value ([4]; KPN 200327, AF1 @ 8 μg/mL) was “<=0.25 μg/mL”. The “MIC ATB in combination” value ([4]; KPN 260251, AF1 @ 4 μg/mL) was 1 µg/mL, the “MIC ATB in combination” value ([4]; KPN 260251, AF1 @ 8 μg/mL) was “<=0.25 μg/mL” and the “MIC ATB in combination” value ([4]; KPN 260252, AF1 @ 4 μg/mL) was 32 µg/mL. The “MIC ATB in combination” value ([4]; KPN 260252, AF1 @ 8 μg/mL) was 8 µg/mL, the “MIC ATB in combination” value ([4]; KPN 260376, AF1 @ 4 μg/mL) was “<=0.25 μg/mL” and the “MIC ATB in combination” value ([4]; KPN 260376, AF1 @ 8 μg/mL) was “<=0.25 μg/mL”. The “MIC ATB in combination” value ([4]; KPN 270077, AF1 @ 4 μg/mL) was “<=0.25 μg/mL”, the “MIC ATB in combination” value ([4]; KPN 270077, AF1 @ 8 μg/mL) was “<=0.25 μg/mL” and the “MIC ATB in combination” value ([4]; KPN 700603, AF1 @ 4 μg/mL) was 1 µg/mL. The “MIC ATB in combination” value ([4]; KPN 700603, AF1 @ 8 μg/mL) was “<=0.25 μg/mL”, the “MIC ATB in combination” value ([4]; KPN ARA, AF1 @ 4 μg/mL) was “<=0.25 μg/mL” and the “MIC ATB in combination” value ([4]; KPN ARA, AF1 @ 8 μg/mL) was “<=0.25 μg/mL”. For the same compound, the “MIC ATB in combination” value ([4]; KPN BAA-1898, AF1 @ 4 μg/mL) was 1 µg/mL, the “MIC ATB in combination” value ([4]; KPN BAA-1898, AF1 @ 8 μg/mL) was “<=0.25 μg/mL” and the “MIC ATB in combination” value ([4]; KPN LIB, AF1 @ 4 μg/mL) was “<=0.25 μg/mL”.
